Source: US10988465B2, “CXCR4 inhibitors and uses thereof” (X4 Pharmaceuticals, Inc., priority 2016, dated 2021)
Values joined by “and” are separate entries in the source; they are usually repeats but may differ in a detail not shown here. Identical values can stand only once. Like-named read-outs stand apart in the source and are kept apart here. Values belong to the compound of their own block, whether it stands above or below them.

Legend:
[1] = 7-day toxicology study in mice (clinical observations, body weight, food consumption, necropsy, hematology); format: in vivo, male C57BL/6 mice; details: for WBC (10^9/L), Mean: group mean; for WBC (10^9/L), Mean / WBC (10^9/L): day 8, 24 hours after last dose; for WBC (10^9/L): individual animal
Experimental: Example 41: 7-Day Toxicology Study in Mice
Blood samples were taken on day 8, 24 hours after last dose.

[2] = MTD, pharmacokinetics and brain penetration after PO administration; format: in vivo, male C57BL/6 mice; details: male; for half-life: MTD mouse, read-out: t½ (converted); for AUC(0-t): C57BL/6, mouse
Experimental: All PO dosing solutions were prepared in 50 mM citrate buffer (pH 4.0).
The blood collection was performed as follows: the animal was restrained manually at the designated time points, approximately 500 μL of blood sample was collected via cardiac puncture vein into EDTA-2K tubes. The whole blood needed to be divided into two parts; one part was placed in the tube containing EDTA-2K for plasma generation and the other was used for the hematology assay, respectively. The blood samples for plasma generation were maintained in wet ice first and centrifuged to obtain plasma (2000 g, 4° C., 5 min) within 15 minutes post sampling. The brain collection was performed as follows: a mid-line incision was made in the animal's scalp and the skin was retracted. Using small bone cutters and rongeurs, the skull overlying the brain was removed. The brain was removed using a spatula and rinsed with cold saline. The brain was placed in screw-top tubes, and then stored at −70° C. until analysis. The CSF collection was performed as follows: a mid line incision was made on the neck. The muscle under the skin was cut to expose the cisterna magna. The cisterna magna was penetrated with the sharp end of one capillary (Burn one end of capillary to make it sharp). The CSF was sucked spontaneously into the capillary.
Plasma sample preparation: An aliquot of 30 μL sample was added with 100 μL MeCN containing 100 ng/mL IS (Dexamethasone). The mixture was vortexed for 10 min and centrifuged at 5800 rpm for 10 min. An aliquot of 40 μL supernatant was added to 40 μL H2O and the mixture was vortexed for 5 min. An aliquot of 2 μL supernatant was injected for LC-MS/MS analysis.
An aliquot of 30 μL brain homogenate (brain:PBS=1:3, w/v) sample was added to 100 μL MeCN containing 100 ng/mL IS (Dexamethasone). The mixture was vortexed for 10 min and centrifuged at 5800 rpm for 10 min. An aliquot of 40 μL supernatant was added to 40 μL H2O and the mixture was vortexed for 5 min. An aliquot of 2 μL supernatant was injected for LC-MS/MS analysis.
An aliquot of 3 μL sample was added to a mixture of 6 μL CSF, 9 μL MeOH/H2O (1/1), 40 μL MeCN containing 200 ng/mL IS (Dexamethasone), and 116 μL H2O. The mixture was vortexed for 5 min. An aliquot of 4 μL was injected for LC-MS/MS analysis.
The sample analysis was performed on UPLC-MS/MS-02 (Triple Quad™ 4000) under the following conditions: positive ion, ESI, MRM detection using dexamethasone as internal standard. HPLC conditions: mobile phase A: H2O-0.1% formic acid, mobile phase B: MeCN-0.1% formic acid on: ACQUITY UPLC HSS T3 (2.1×50 mm, 1.8 μm) at 60° C.

[3] = Mouse brain uptake assay (MBUA), 3 mg/kg IV, 0-24 h, 4 time points; format: in vivo, male CD1 mice
Experimental: Example 38: Pharmacokinetics and Brain Penetration Experiment to Determine Brain and Plasma Concentrations of Compounds after IV Administration to Male CD1 Mice
The study design (9 animals) consisted of administrating the drug (IV: 3 mg/kg (5 mL/kg) via tail vein injection) and collecting samples at terminal bleeding for plasma and brain at 0.083, 0.5 and 1 h. The IV dosing solution was prepared in 50 mM citrate buffer (pH 4.0) at 0.6 mg/mL. The blood collection was performed as follows: the animal was restrained manually and approximately 150 μL blood/time point was collected into a dipotassium EDTA tube via retro orbital puncture under anesthesia with isoflurane. The blood sample was put on ice and centrifuged to obtain a plasma sample (2000 g, 5 min under 4° C.) within 15 minutes. The brain collection was performed as follows: a mid-line incision was made in the animal's scalp and the skin was retracted. Using small bone cutters and rongeurs, the skull overlying the brain was removed. The brain was removed using a spatula and the brain rinsed with cold saline. The brain was placed in screw-top tubes, and the tubes were stored at −70° C. until analysis.
An aliquot of 30 μL sample was added to 150 μL MeCN containing 50 ng/mL IS (Dexamethasone). The mixture was vortexed for 5 min and centrifuged at 14,000 rpm for 5 min. An aliquot of 5 μL supernatant was injected for LC-MS/MS analysis.
An aliquot of 30 μL brain homogenate (brain:PBS=1:3, w/v) sample was added to 150 μL IS in MeCN (Dexamethasone, 50 ng/mL). The mixture was vortexed for 5 min and centrifuged at 14,000 rpm for 5 min. An aliquot of 5 μL supernatant was injected for LC-MS/MS analysis.
The sample analysis was performed on LCMS/MS-003 (API4000, triple quadruple) under the following conditions: positive ion, ESI, MRM detection using dexamethasone as internal standard. HPLC conditions: mobile phase A: H2O (0.025% formic acid (FA) with 1 mM NH4OAc); mobile phase B: MeOH (0.025% FA with 1 mM NH4OAc) on Waters X-Bridge C18 (2.1×50 mm, 2.5 μm) column at 60° C.
A similar experiment was performed with 4 time points taken from 0-24 h.

SMILES: Cc1cccnc1[C@@H]1CCC[C@H](c2nc3cccc(N4CCN(C)CC4)c3[nH]2)N1C (racemic) [I-3, 2-((2R,6S)-1-methyl-6-(3-methylpyridin-2-yl)piperidin-2-yl)-7-(4-methylpiperazin-1-yl)-1H-benzo[d]imidazole]
WBC (10^9/L), Mean ([1]; Group 2, PO-10 mg/kg): 4.92 10^9/L
WBC (10^9/L) ([1]; Group 2, PO-10 mg/kg, 10 mg/kg): 3.67 10^9/L and 6.66 10^9/L and 4.44 10^9/L
WBC (10^9/L), Mean ([1]; Group 3, PO-30 mg/kg): 8.58 10^9/L
WBC (10^9/L) ([1]; Group 3, PO-30 mg/kg, 30 mg/kg): 11.6 10^9/L and 6.51 10^9/L and 7.69 10^9/L
WBC (10^9/L), Mean ([1]; Group 4, PO-100 mg/kg): 18.7 10^9/L
WBC (10^9/L) ([1]; Group 4, PO-100 mg/kg, 100 mg/kg): 20.4 10^9/L
necropsy finding ([1]; dose of 30 mg/kg P.O., 7 days): One mouse had an enlarged kidney
white blood cells ([1]; dose of 100 mg/kg P.O., 7 days): sustained increase
overt toxicity (clinical observations, body weight, food consumption) ([1]; male C57BL/6 mice, 7 days repeat dosing up to 100 mg/kg/day by oral gavage): no overt signs of toxicity
body weight ([1]; male C57BL/6 mice, 7 days, up to 100 mg/kg/day by oral gavage): remained stable
half-life ([2]; C57BL/6, in vivo, single administration, D 1-50 mg/kg): 3.3 h
AUC(0-t) ([2]; brain, multiple administration, D 5-300 mg/kg, read-out: AUClast (b)): 384000 ng·h/mL
AUC(0-t) ([2]; brain, single administration, D 1-50 mg/kg, read-out: AUClast (b)): 15500 ng·h/mL
AUC(0-t) ([2]; plasma, multiple administration, D 5-300 mg/kg, read-out: AUClast (p)): 142000 ng·h/mL
AUC(0-t) ([2]; plasma, single administration, D 1-50 mg/kg, read-out: AUClast (p)): 7100 ng·h/mL
half-life ([2]; C57BL/6, plasma, multiple administration, D 5-300 mg/kg): 6.1 h

Kp ([3]; male, CD1, mouse, brain/plasma, iv, 3 mg/kg): 4.17
clearance ([3]; male, CD1, plasma, mouse, 3 mg/kg IV, 0-24 h, 4 time points): 26.2 mL/min/kg
half-life ([3]; male, CD1, plasma, mouse, 3 mg/kg IV, 0-24 h, 4 time points, read-out: t½ (converted)): 3.5 h
AUC(0-t) ([3]; male, CD1, brain, mouse, 3 mg/kg IV, 0-24 h, read-out: AUClast (b)): 7930 ng·h/mL
AUC(0-t) ([3]; male, CD1, plasma, mouse, 3 mg/kg IV, 0-24 h, read-out: AUClast (P)): 1900 ng·h/mL
Kp uu ([3]; male, CD1, unbound brain/unbound plasma, mouse, 3 mg/kg IV, 0-24 h): 1.15
fraction unbound ([3]; mouse, fraction unbound to brain proteins, read-out: Fu (b) %): 0.035
fraction unbound ([3]; mouse, fraction unbound to plasma proteins, read-out: Fu (p) %): 0.127
SMILES: CN1CCN(c2cccc3nc([C@H]4CCC[C@@H](c5ncccc5Cl)N4)[nH]c23)CC1 (racemic) [I-122]
